In ChEMBL document CHEMBL1201862, “PubChem BioAssay data set” (2004):
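Assay format: 96-well plates, 48-hour exposure. GI50 is the concentration that inhibits growth by half.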 Active and inactive are the calls of the source. No stated cut-off is given here; in the data, active = GI50 up to about 1.1 µM and inactive = higher.

Key:
Test in all cases: growth of human tumour cells (NCI), 48 h
CAKI-1 = test system: CAKI-1
EKVX = test system: EKVX
HT-29 = test system: HT-29
IGROV-1 = test system: IGROV-1
NCI-H460 = test system: NCI-H460
OVCAR-5 = test system: OVCAR-5
RXF 393 = test system: RXF 393
SF-268 = test system: SF-268
SF-295 = test system: SF-295
SK-MEL-28 = test system: SK-MEL-28
SNB-19 = test system: SNB-19
SNB-75 = test system: SNB-75
SW-620 = test system: SW-620
U-251 = test system: U-251
UACC-257 = test system: UACC-257
SR = test system: SR

Measured: GI50

CCO[C@@H]1C2C=CC(C2)[C@H]1[N+](=O)[O-] (stereo not given in full)
inactive: CAKI-1 > 100 µM | EKVX > 100 µM | HT-29 > 100 µM | IGROV-1 > 100 µM | NCI-H460 > 100 µM | OVCAR-5 > 100 µM | RXF 393 > 100 µM | SF-268 > 100 µM | SF-295 > 100 µM | SK-MEL-28 > 100 µM | SNB-19 > 100 µM | SNB-75 64.9 µM | SW-620 > 100 µM | U-251 > 100 µM | UACC-257 > 100 µM

CCOC(=O)/C(=C/c1ccc(Cl)cc1)N(CC)CC
inactive: CAKI-1 > 100 µM | EKVX > 100 µM | HT-29 > 100 µM | IGROV-1 > 100 µM | NCI-H460 > 100 µM | OVCAR-5 > 100 µM | SF-268 > 100 µM | SF-295 > 100 µM | SK-MEL-28 > 100 µM | SNB-75 > 100 µM | SR > 100 µM | SW-620 > 100 µM | U-251 > 100 µM | UACC-257 > 100 µM

CCCC/C=C/C=C/C=C/CCCCCCCC(=O)OCC(COC(=O)CCCCCCC/C=C/C1C=CC(CCCC)C(C(=O)O)C1C(=O)O)OC(=O)CCCCCCC/C=C/C=C/C=C/CCCC.OCCNCO (stereo not given)
inactive: CAKI-1 28.8 µM | EKVX 19 µM | HT-29 16.7 µM | IGROV-1 19.8 µM | NCI-H460 33.8 µM | OVCAR-5 20.2 µM | SF-268 17.5 µM | SF-295 17.8 µM | SK-MEL-28 18.3 µM | SNB-19 20.2 µM | SNB-75 19.2 µM | SW-620 4.05 µM | UACC-257 19.1 µM

O=C(CC1=Nc2nnc(-c3nnc4n3C(=O)C(CC(=O)c3cccnc3)=N4)n2C1=O)c1cccnc1
inactive: CAKI-1 > 100 µM | HT-29 > 100 µM | IGROV-1 > 100 µM | NCI-H460 > 100 µM | OVCAR-5 > 100 µM | RXF 393 > 100 µM | SF-268 > 100 µM | SF-295 > 100 µM | SK-MEL-28 > 100 µM | SNB-19 > 100 µM | SNB-75 > 100 µM | SW-620 > 100 µM | U-251 > 100 µM | UACC-257 > 100 µM

O=c1c2cc3ccccc3n2c(=O)c2cc3ccccc3n12
inactive: CAKI-1 > 100 µM | EKVX > 100 µM | HT-29 > 100 µM | NCI-H460 > 100 µM | OVCAR-5 > 100 µM | RXF 393 > 100 µM | SF-268 > 100 µM | SF-295 > 100 µM | SK-MEL-28 > 100 µM | SNB-19 > 100 µM | SNB-75 > 100 µM | SR > 100 µM | SW-620 > 100 µM | U-251 > 100 µM | UACC-257 > 100 µM

c1cc(-c2cn[nH]c2)cc(-c2cn[nH]c2)c1
inactive: CAKI-1 8.04 µM | EKVX 6.24 µM | IGROV-1 51.2 µM | NCI-H460 41.4 µM | RXF 393 6.44 µM | SF-268 25.8 µM | SF-295 39.8 µM | SK-MEL-28 35.9 µM | SNB-19 61.1 µM | SNB-75 6.76 µM | SR 31.8 µM | SW-620 30.4 µM | U-251 46.8 µM | UACC-257 90.8 µM

O=CCCCC(Sc1ccccc1)Sc1ccccc1
inactive: CAKI-1 56.8 µM | EKVX 31.1 µM | IGROV-1 19.9 µM | NCI-H460 > 10 µM | RXF 393 > 10 µM | SF-268 18.4 µM | SF-295 18.1 µM | SK-MEL-28 15.8 µM | SNB-19 45.4 µM | SNB-75 18.2 µM | SR 15.6 µM | SW-620 11.4 µM | U-251 15.5 µM | UACC-257 21.1 µM

c1ccc2c3nc(C4CCCC4)nc-3c(NC3CCCC3)[nH]c2c1
inactive: EKVX 57.4 µM | HT-29 4.6 µM | IGROV-1 20.3 µM | NCI-H460 8.04 µM | OVCAR-5 22.5 µM | RXF 393 14.7 µM | SF-268 16.9 µM | SF-295 16.8 µM | SK-MEL-28 13 µM | SNB-19 45.1 µM | SNB-75 66.1 µM | SR 10.3 µM | SW-620 5.43 µM | U-251 3.23 µM | UACC-257 5.94 µM

O=c1c2cc(Br)ccc2[nH]c(=S)n1-c1ccc(Br)cc1
inactive: EKVX > 100 µM | HT-29 > 100 µM | IGROV-1 > 100 µM | NCI-H460 82.8 µM | RXF 393 > 100 µM | SF-268 > 100 µM | SF-295 45.5 µM | SK-MEL-28 > 100 µM | SNB-19 47.9 µM | SNB-75 12.1 µM | SR > 100 µM | SW-620 > 100 µM | U-251 47.3 µM | UACC-257 > 100 µM

CCOC(=O)/C(C#N)=C1\N[C@H](C(=O)OCC)CO1
inactive: CAKI-1 > 100 µM | EKVX > 100 µM | HT-29 > 100 µM | IGROV-1 > 100 µM | NCI-H460 > 100 µM | OVCAR-5 > 100 µM | RXF 393 > 100 µM | SF-268 > 100 µM | SF-295 > 100 µM | SK-MEL-28 > 100 µM | SNB-19 > 100 µM | SR > 100 µM | SW-620 > 100 µM | U-251 > 100 µM | UACC-257 > 100 µM

CS(=O)(=O)N(CCC#N)c1ccc(/C=C2\N=C(c3ccccc3Cl)OC2=O)cc1
inactive: CAKI-1 > 100 µM | EKVX > 100 µM | HT-29 > 100 µM | IGROV-1 > 100 µM | NCI-H460 > 100 µM | OVCAR-5 > 100 µM | RXF 393 > 100 µM | SF-268 > 100 µM | SF-295 > 100 µM | SK-MEL-28 > 100 µM | SNB-19 > 100 µM | SNB-75 > 100 µM | SW-620 > 100 µM | U-251 > 100 µM | UACC-257 > 100 µM

Cc1cc(N(CCC#N)S(C)(=O)=O)ccc1C=O
inactive: CAKI-1 > 100 µM | HT-29 > 100 µM | IGROV-1 > 100 µM | NCI-H460 > 100 µM | OVCAR-5 > 100 µM | RXF 393 > 100 µM | SF-268 > 100 µM | SF-295 > 100 µM | SK-MEL-28 > 100 µM | SNB-19 > 100 µM | SNB-75 > 100 µM | SR > 100 µM | SW-620 > 100 µM | U-251 > 100 µM | UACC-257 > 100 µM

COc1ccc(/C=C2\SC(c3ccc(OC)cc3)N(NC(=O)Cc3ccccc3)C2=O)cc1 (stereo not given)
inactive: CAKI-1 > 100 µM | HT-29 > 100 µM | IGROV-1 > 100 µM | NCI-H460 > 100 µM | OVCAR-5 > 100 µM | RXF 393 63.7 µM | SF-268 > 100 µM | SF-295 > 100 µM | SK-MEL-28 > 100 µM | SNB-75 > 100 µM | SR > 100 µM | SW-620 > 100 µM | U-251 > 100 µM | UACC-257 > 100 µM

COC(=O)C(=O)C(C#N)c1ccc(CC#N)cc1 (stereo not given)
inactive: CAKI-1 > 100 µM | EKVX > 100 µM | HT-29 > 100 µM | IGROV-1 > 100 µM | SF-268 > 100 µM | SF-295 > 100 µM | SK-MEL-28 > 100 µM | SNB-19 > 100 µM | SNB-75 > 100 µM | SR > 100 µM | SW-620 > 100 µM | U-251 > 100 µM | UACC-257 > 100 µM
